Source: PubChem BioAssay AID1963984 (Molecular Pharmacology Branch, DTP, NCI, 2024)

System: 233499-124-R-J3-PDC spheroids with HUVEC/MSC, viability
Experiment: Anticancer human tumor 233499-124-R-J3-PDC patient-derived colon adenocarcinoma cell line growth inhibition [PI3K]
Conditions: for IC50: curve of first compound; for viability, T/C: stronger effect = lower value
Outline: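 Agents were dosed from a top concentration near clinical Cmax (otherwise 10 microM) in half-log decrements, alone or combined with PI3K inhibitors. The spheroids contain tumor cells plus endothelial (HUVEC) and MSC stroma; viability is measured.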

[1] = second compound 0.00316 µM, first compound 0.0316 µM
[2] = second compound 0.00316 µM, first compound 0.1 µM
[3] = second compound 0.00316 µM, first compound 0.316 µM
[4] = second compound 0.00316 µM, first compound 1 µM
[5] = second compound 0.00316 µM, first compound 3.16 µM
[6] = second compound 0.00316 µM, first compound 10 µM
[7] = second compound 0.01 µM, first compound 0.0316 µM
[8] = second compound 0.01 µM, first compound 0.1 µM
[9] = second compound 0.01 µM, first compound 0.316 µM
[10] = second compound 0.01 µM, first compound 1 µM
[11] = second compound 0.01 µM, first compound 3.16 µM
[12] = second compound 0.01 µM, first compound 10 µM
[13] = second compound 0.0316 µM, first compound 0.0316 µM
[14] = second compound 0.0316 µM, first compound 0.1 µM
[15] = second compound 0.0316 µM, first compound 0.316 µM
[16] = second compound 0.0316 µM, first compound 1 µM
[17] = second compound 0.0316 µM, first compound 3.16 µM
[18] = second compound 0.0316 µM, first compound 10 µM
[19] = second compound 0.1 µM, first compound 0.0316 µM
[20] = second compound 0.1 µM, first compound 0.1 µM
[21] = second compound 0.1 µM, first compound 0.316 µM
[22] = second compound 0.1 µM, first compound 1 µM
[23] = second compound 0.1 µM, first compound 3.16 µM
[24] = second compound 0.1 µM, first compound 10 µM
[25] = second compound 0.316 µM, first compound 0.0316 µM
[26] = second compound 0.316 µM, first compound 0.1 µM
[27] = second compound 0.316 µM, first compound 0.316 µM
[28] = second compound 0.316 µM, first compound 1 µM
[29] = second compound 0.316 µM, first compound 3.16 µM
[30] = second compound 0.316 µM, first compound 10 µM
[31] = second compound 1 µM, first compound 0.0316 µM
[32] = second compound 1 µM, first compound 0.1 µM
[33] = second compound 1 µM, first compound 0.316 µM
[34] = second compound 1 µM, first compound 1 µM
[35] = second compound 1 µM, first compound 3.16 µM
[36] = second compound 1 µM, first compound 10 µM
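Note: spheroids exposed to agents for seven days before readout.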
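Throughout, for viability, T/C: percent viability relative to DMSO vehicle control taken as 100%.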

SMILES: CCCS(=O)(=O)Nc1ccc(F)c(C(=O)c2c[nH]c3ncc(-c4ccc(Cl)cc4)cc23)c1F + COc1c(OCCCN2CCOCC2)ccc2c3n(c(=NC(=O)c4cnc(N)nc4)nc12)CCN3
- IC50 (second compound 0.00316 µM): 5000 nM
- IC50 (second compound 0.01 µM): 5780 nM
- IC50 (second compound 0.0316 µM): 5030 nM
- IC50 (second compound 0.1 µM): 3410 nM
- IC50 (second compound 0.316 µM): < 31.6 nM
- IC50 (second compound 1 µM): < 31.6 nM
- viability, T/C [1]: 84%
- viability, T/C [2]: 87.8%
- viability, T/C [3]: 101%
- viability, T/C [4]: 94.1%
- viability, T/C [5]: 79.6%
- viability, T/C [6]: 5.08%
- viability, T/C [7]: 88.4%
- viability, T/C [8]: 93.8%
- viability, T/C [9]: 88.9%
- viability, T/C [10]: 83%
- viability, T/C [11]: 90.1%
- viability, T/C [12]: 14.7%
- viability, T/C [13]: 89.7%
- viability, T/C [14]: 78.3%
- viability, T/C [15]: 84.2%
- viability, T/C [16]: 74.5%
- viability, T/C [17]: 77.6%
- viability, T/C [18]: 9.06%
- viability, T/C [19]: 50.2%
- viability, T/C [20]: 56%
- viability, T/C [21]: 54.5%
- viability, T/C [22]: 51.5%
- viability, T/C [23]: 52.7%
- viability, T/C [24]: 12.5%
- viability, T/C [25]: 33.7%
- viability, T/C [26]: 35.8%
- viability, T/C [27]: 38.2%
- viability, T/C [28]: 27.2%
- viability, T/C [29]: 23.6%
- viability, T/C [30]: 2.75%
- viability, T/C [31]: 10.5%
- viability, T/C [32]: 9.36%
- viability, T/C [33]: 6.83%
- viability, T/C [34]: 18.9%
- viability, T/C [35]: 8.57%
- viability, T/C [36]: 1.66%

SMILES: CC1(C)CCC(Nc2ncc(C(F)(F)F)c(-c3c[nH]c4c(P(C)(C)=O)c(C#N)ccc34)n2)CN1 (stereo unspecified) + CC(Nc1ccc2c(c1)OCCn1cc(N3C(=O)OCC3C(F)F)nc1-2)C(N)=O
- IC50 (second compound 0.00316 µM): 73.8 nM
- IC50 (second compound 0.01 µM): < 31.6 nM
- IC50 (second compound 0.0316 µM): 94 nM
- IC50 (second compound 0.1 µM): < 31.6 nM
- IC50 (second compound 0.316 µM): 84.3 nM
- IC50 (second compound 1 µM): < 31.6 nM
- viability, T/C [1]: 55.3%
- viability, T/C [2]: 58.7%
- viability, T/C [3]: 24.6%
- viability, T/C [4]: 19.3%
- viability, T/C [5]: 34.4%
- viability, T/C [6]: 1.55%
- viability, T/C [7]: 39.4%
- viability, T/C [8]: 42.9%
- viability, T/C [9]: 34.9%
- viability, T/C [10]: 22.1%
- viability, T/C [11]: 22.7%
- viability, T/C [12]: 1.45%
- viability, T/C [13]: 79.9%
- viability, T/C [14]: 44.4%
- viability, T/C [15]: 31.4%
- viability, T/C [16]: 17%
- viability, T/C [17]: 17.1%
- viability, T/C [18]: 1.3%
- viability, T/C [19]: 36.5%
- viability, T/C [20]: 40.7%
- viability, T/C [21]: 24.5%
- viability, T/C [22]: 13.8%
- viability, T/C [23]: 18.9%
- viability, T/C [24]: 4.74%
- viability, T/C [25]: 67.4%
- viability, T/C [26]: 43%
- viability, T/C [27]: 34.3%
- viability, T/C [28]: 19.4%
- viability, T/C [29]: 20.7%
- viability, T/C [30]: 2.38%
- viability, T/C [31]: 49%
- viability, T/C [32]: 29.3%
- viability, T/C [33]: 28.6%
- viability, T/C [34]: 18.6%
- viability, T/C [35]: 25.9%
- viability, T/C [36]: 0.86%

SMILES: CC1(C)CCC(Nc2ncc(C(F)(F)F)c(-c3c[nH]c4c(P(C)(C)=O)c(C#N)ccc34)n2)CN1 (stereo unspecified) + COc1c(OCCCN2CCOCC2)ccc2c3n(c(=NC(=O)c4cnc(N)nc4)nc12)CCN3
- IC50 (second compound 0.00316 µM): 287 nM
- IC50 (second compound 0.01 µM): 205 nM
- IC50 (second compound 0.0316 µM): 56.7 nM
- IC50 (second compound 0.1 µM): 102 nM
- IC50 (second compound 0.316 µM): < 31.6 nM
- IC50 (second compound 1 µM): < 31.6 nM
- viability, T/C [1]: 64.2%
- viability, T/C [2]: 73.2%
- viability, T/C [3]: 42%
- viability, T/C [4]: 29.5%
- viability, T/C [5]: 29.5%
- viability, T/C [6]: 5.37%
- viability, T/C [7]: 56.5%
- viability, T/C [8]: 67.6%
- viability, T/C [9]: 42.7%
- viability, T/C [10]: 15.7%
- viability, T/C [11]: 25.4%
- viability, T/C [12]: 5.25%
- viability, T/C [13]: 58.4%
- viability, T/C [14]: 43.3%
- viability, T/C [15]: 29.8%
- viability, T/C [16]: 29.7%
- viability, T/C [17]: 37.7%
- viability, T/C [18]: 2.18%
- viability, T/C [19]: 58.3%
- viability, T/C [20]: 53.9%
- viability, T/C [21]: 37.2%
- viability, T/C [22]: 26.1%
- viability, T/C [23]: 23.7%
- viability, T/C [24]: 2.55%
- viability, T/C [25]: 33.5%
- viability, T/C [26]: 29.4%
- viability, T/C [27]: 24.3%
- viability, T/C [28]: 14.7%
- viability, T/C [29]: 16.3%
- viability, T/C [30]: 1.17%
- viability, T/C [31]: 8.22%
- viability, T/C [32]: 10.7%
- viability, T/C [33]: 8.48%
- viability, T/C [34]: 14.2%
- viability, T/C [35]: 6.77%
- viability, T/C [36]: 1.03%

SMILES: CC(C)n1nc(-c2ccc3oc(N)nc3c2)c2c(N)ncnc21 + CC(Nc1ccc2c(c1)OCCn1cc(N3C(=O)OCC3C(F)F)nc1-2)C(N)=O
- IC50 (second compound 0.00316 µM): > 100 nM
- IC50 (second compound 0.01 µM): > 100 nM
- IC50 (second compound 0.0316 µM): > 100 nM
- IC50 (second compound 0.1 µM): 53.3 nM
- IC50 (second compound 0.316 µM): 15.1 nM
- IC50 (second compound 1 µM): 3.69 nM
- viability, T/C (second compound 0.00316 µM, first compound 0.000316 µM): 73.5%
- viability, T/C (second compound 0.00316 µM, first compound 0.001 µM): 90.1%
- viability, T/C (second compound 0.00316 µM, first compound 0.00316 µM): 88%
- viability, T/C (second compound 0.00316 µM, first compound 0.01 µM): 95.7%
- viability, T/C [1]: 81%
- viability, T/C [2]: 50.2%
- viability, T/C (second compound 0.01 µM, first compound 0.000316 µM): 97.8%
- viability, T/C (second compound 0.01 µM, first compound 0.001 µM): 92.7%
- viability, T/C (second compound 0.01 µM, first compound 0.00316 µM): 105%
- viability, T/C (second compound 0.01 µM, first compound 0.01 µM): 89.4%
- viability, T/C [7]: 78.3%
- viability, T/C [8]: 57.5%
- viability, T/C (second compound 0.0316 µM, first compound 0.000316 µM): 103%
- viability, T/C (second compound 0.0316 µM, first compound 0.001 µM): 83%
- viability, T/C (second compound 0.0316 µM, first compound 0.00316 µM): 85.9%
- viability, T/C (second compound 0.0316 µM, first compound 0.01 µM): 70.3%
- viability, T/C [13]: 91%
- viability, T/C [14]: 60.8%
- viability, T/C (second compound 0.1 µM, first compound 0.000316 µM): 84%
- viability, T/C (second compound 0.1 µM, first compound 0.001 µM): 61.3%
- viability, T/C (second compound 0.1 µM, first compound 0.00316 µM): 66%
- viability, T/C (second compound 0.1 µM, first compound 0.01 µM): 77%
- viability, T/C [19]: 66.6%
- viability, T/C [20]: 29.1%
- viability, T/C (second compound 0.316 µM, first compound 0.000316 µM): 82.7%
- viability, T/C (second compound 0.316 µM, first compound 0.001 µM): 49.3%
- viability, T/C (second compound 0.316 µM, first compound 0.00316 µM): 73.5%
- viability, T/C (second compound 0.316 µM, first compound 0.01 µM): 46.6%
- viability, T/C [25]: 52.8%
- viability, T/C [26]: 24.2%
- viability, T/C (second compound 1 µM, first compound 0.000316 µM): 49.8%
- viability, T/C (second compound 1 µM, first compound 0.001 µM): 48.4%
- viability, T/C (second compound 1 µM, first compound 0.00316 µM): 59.2%
- viability, T/C (second compound 1 µM, first compound 0.01 µM): 41.2%
- viability, T/C [31]: 26.3%
- viability, T/C [32]: 12.3%

SMILES: CC1(C)CCC(CN2CCN(c3ccc(C(=O)NS(=O)(=O)c4ccc(NCC5CCOCC5)c([N+](=O)[O-])c4)c(Oc4cnc5[nH]ccc5c4)c3)CC2)=C(c2ccc(Cl)cc2)C1
- viability, T/C (compound 0.0316 µM): 96.5% [middle of 4 runs]
- viability, T/C (compound 0.1 µM): 104% [middle of 4 runs]
- viability, T/C (compound 3.16 µM): 100% [middle of 4 runs]
